From patent US20230085307A1, “PYRIDAZINONE COMPOUND AND HERBICIDE” (NISSAN CHEMICAL CORPORATION, priority 2019, published 2023)

Experiments:
[1] = tested on: windgrass; experiment: Test Example 5: herbicidal effect by foliage application, plastic box (Table 20, symbol L); type: in vivo, windgrass (Apera spica-venti); details: foliage application, 320 g/ha
Outline: (§1)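 Sow seeds spot-wise in sterilized diluvial soil; cover with ~1.5 cm soil. Grow 14 days in greenhouse, 25° C. to 30° C. Spray foliage with emulsion diluted to predetermined amount. Rate effect after 3 weeks.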

[2] = tested on: blackgrass; experiment: Test Example 4: herbicidal effect by soil treatment (Table 19, symbol J); type: in vivo, blackgrass (Alopecurus myosuroides)
Text: (§2) [Test Example 4] Herbicidal Effect Test by Soil Treatment
(§3) Sterilized diluvial soil was placed in a plastic box having a length of 21 cm, a width of 13 cm, and a depth of 7 cm. The seeds of each of southern crabgrass, green foxtail, barnyard grass, wild oat, blackgrass, Italian ryegrass, windgrass, velvetleaf, redroot pigweed, lambsquarters, chickweed, false cleavers, persian speedwell, corn, soybean, rice, wheat, beet, and rapeseed were sowed in a spot-like manner and covered with the soil having a thickness of about 1.5 cm. Subsequently, the emulsion agent of the compound of the present invention prepared according to Formulation Example 2 was diluted with water so as to achieve a predetermined herbicide amount, and the diluted emulsion agent was uniformly applied to the surface of the soil with a small-sized spray. The plastic box was placed in a greenhouse at 25° C. to 30° C. for growth of the plants. Three weeks after the herbicide application, the effect of the herbicide on each plant was evaluated according to the criteria of Test Example 1.

[3] = tested on: windgrass; experiment: Test Example 4: herbicidal effect by soil treatment (Table 19, symbol L); type: in vivo, windgrass (Apera spica-venti)
Text: as §2, §3

[4] = tested on: southern crabgrass; experiment: Test Example 5: herbicidal effect by foliage application, plastic box (Table 20, symbol F); type: in vivo, southern crabgrass (Digitaria ciliaris); details: foliage application, 320 g/ha
Outline: as §1

[5] = tested on: barnyard grass; experiment: Test Example 4: herbicidal effect by soil treatment (Table 19, symbol H); type: in vivo, barnyard grass (Echinochloa crus-galli)
Text: as §2, §3

[6] = tested on: wild oat; experiment: Test Example 4: herbicidal effect by soil treatment (Table 19, symbol I); type: in vivo, wild oat (Avena fatua)
Text: as §2, §3

[7] = tested on: barnyard grass; experiment: Test Example 3: herbicidal effect by foliage application, Wagner pot (Table 18, symbol H); type: in vivo, barnyard grass (Echinochloa crus-galli); details: 320 g/ha
Outline: (§4)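 Plants were sown in alluvial soil held under 0.1–0.5 cm standing water and grown 14 days in a greenhouse at 25–30 °C. An emulsifiable formulation, water-diluted to the set dose, was then sprayed onto the foliage, and effects were scored three weeks later using previously defined criteria.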

[8] = tested on: redroot pigweed; experiment: Test Example 4: herbicidal effect by soil treatment (Table 19, symbol N); type: in vivo, redroot pigweed (Amaranthus retroflexus)
Text: as §2, §3

[9] = tested on: barnyard grass; experiment: Test Example 5: herbicidal effect by foliage application, plastic box (Table 20, symbol H); type: in vivo, barnyard grass (Echinochloa crus-galli); details: foliage application, 320 g/ha
Outline: as §1

[10] = tested on: Italian ryegrass; experiment: Test Example 4: herbicidal effect by soil treatment (Table 19, symbol K); type: in vivo, Italian ryegrass (Lolium multiflorum)
Text: as §2, §3

[11] = tested on: lambsquarters; experiment: Test Example 4: herbicidal effect by soil treatment (Table 19, symbol O); type: in vivo, lambsquarters (Chenopodium album)
Outline: (§5)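 Soil-surface application: an emulsion agent diluted with water to the predetermined dose is sprayed uniformly over seeds lying under roughly 1.5 cm of sterilized diluvial soil. Boxes stay in a greenhouse at 25° C. to 30° C. Three weeks later, each species is graded on previously defined criteria.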

[12] = tested on: Italian ryegrass; experiment: Test Example 5: herbicidal effect by foliage application, plastic box (Table 20, symbol K); type: in vivo, Italian ryegrass (Lolium multiflorum); details: foliage application, 320 g/ha
Outline: as §1

[13] = tested on: velvetleaf; experiment: Test Example 4: herbicidal effect by soil treatment (Table 19, symbol M); type: in vivo, velvetleaf (Abutilon theophrasti)
Text: as §2, §3

[14] = tested on: southern crabgrass; experiment: Test Example 4: herbicidal effect by soil treatment (Table 19, symbol F); type: in vivo, southern crabgrass (Digitaria ciliaris)
Outline: as §5

[15] = tested on: velvetleaf; experiment: Test Example 5: herbicidal effect by foliage application, plastic box (Table 20, symbol M); type: in vivo, velvetleaf (Abutilon theophrasti); details: foliage application, 320 g/ha
Outline: as §1

[16] = tested on: rice flat sedge; experiment: Test Example 3: herbicidal effect by foliage application, Wagner pot (Table 18, symbol E); type: in vivo, rice flat sedge (Cyperus iria); details: 320 g/ha
Outline: as §4

[17] = tested on: chickweed; experiment: Test Example 4: herbicidal effect by soil treatment (Table 19, symbol P); type: in vivo, common chickweed (Stellaria media)
Text: as §2, §3

[18] = tested on: green foxtail; experiment: Test Example 5: herbicidal effect by foliage application, plastic box (Table 20, symbol G); type: in vivo, green foxtail (Setaria viridis); details: foliage application, 320 g/ha
Outline: as §1

[19] = tested on: green foxtail; experiment: Test Example 4: herbicidal effect by soil treatment (Table 19, symbol G); type: in vivo, green foxtail (Setaria viridis)
Outline: as §5

[20] = tested on: blackgrass; experiment: Test Example 5: herbicidal effect by foliage application, plastic box (Table 20, symbol J); type: in vivo, blackgrass (Alopecurus myosuroides); details: foliage application, 320 g/ha
Outline: as §1

[21] = tested on: Chinese sprangletop; experiment: Test Example 3: herbicidal effect by foliage application, Wagner pot (Table 18, symbol D); type: in vivo, chinese sprangletop (Leptochloa chinensis); details: 320 g/ha
Outline: as §4

[22] = tested on: persian speedwell; experiment: Test Example 5: herbicidal effect by foliage application, plastic box (Table 20, symbol R); type: in vivo, Persian speedwell (Veronica persica); details: foliage application, 320 g/ha
Outline: as §1

[23] = tested on: lambsquarters; experiment: Test Example 5: herbicidal effect by foliage application, plastic box (Table 20, symbol O); type: in vivo, lambsquarters (Chenopodium album); details: foliage application, 320 g/ha
Outline: as §1

[24] = tested on: wild oat; experiment: Test Example 5: herbicidal effect by foliage application, plastic box (Table 20, symbol I); type: in vivo, wild oat (Avena fatua); details: foliage application, 320 g/ha
Outline: as §1

[25] = tested on: chickweed; experiment: Test Example 5: herbicidal effect by foliage application, plastic box (Table 20, symbol P); type: in vivo, common chickweed (Stellaria media); details: foliage application, 320 g/ha, three weeks after application
Outline: as §1

[26] = tested on: redroot pigweed; experiment: Test Example 5: herbicidal effect by foliage application, plastic box (Table 20, symbol N); type: in vivo, redroot pigweed (Amaranthus retroflexus); details: foliage application, 320 g/ha, three weeks after application
Outline: as §1

[27] = amount of applied herbicide 320 g/ha

Cc1nn(C)c(=O)c(-c2c(-c3ccc(CSC(C)C)cc3)sc3ccccc23)c1O [1-243]
effect on windgrass (L) ([1]; 3 weeks after application): 0 (Herbicidal rate of 5% or less (almost no effect)) | J: blackgrass, herbicidal effect rating ([2]; AAH 320 g/ha): 0 (Herbicidal rate of 5% or less (almost no effect)) | L: windgrass, herbicidal effect rating ([3]; AAH 320 g/ha): 0 (Herbicidal rate of 5% or less (almost no effect)) | effect on southern crabgrass (F) ([4]; 3 weeks after application): 3 (Herbicidal rate of 40% or more and less than 70%) | H: barnyard grass, herbicidal effect rating ([5]; AAH 320 g/ha): 0 (Herbicidal rate of 5% or less (almost no effect)) | I: wild oat, herbicidal effect rating ([6]; AAH 320 g/ha): 0 (Herbicidal rate of 5% or less (almost no effect)) | herbicidal effect on H (barnyard grass), rating 0-5 [7]: 5 (Herbicidal rate of 90% or more (almost completely withered)) | N: redroot pigweed, herbicidal effect rating ([8]; AAH 320 g/ha): 4 (Herbicidal rate of 70% or more and less than 90%) | effect on barnyard grass (H) ([9]; 3 weeks after application): 4 (Herbicidal rate of 70% or more and less than 90%) | K: Italian ryegrass, herbicidal effect rating ([10]; AAH 320 g/ha): 0 (Herbicidal rate of 5% or less (almost no effect)) | O: lambsquarters, herbicidal effect rating ([11]; AAH 320 g/ha): 3 (Herbicidal rate of 40% or more and less than 70%) | effect on Italian ryegrass (K) ([12]; 3 weeks after application): 3 (Herbicidal rate of 40% or more and less than 70%) | M: velvetleaf, herbicidal effect rating ([13]; AAH 320 g/ha): 1 (Herbicidal rate of 5% or more and less than 20%) | F: southern crabgrass, herbicidal effect rating ([14]; AAH 320 g/ha): 0 (Herbicidal rate of 5% or less (almost no effect)) | effect on velvetleaf (M) ([15]; 3 weeks after application): 5 (Herbicidal rate of 90% or more (almost completely withered)) | herbicidal effect on E (rice flat sedge), rating 0-5 [16]: 4 (Herbicidal rate of 70% or more and less than 90%) | P: chickweed, herbicidal effect rating ([17]; AAH 320 g/ha): 0 (Herbicidal rate of 5% or less (almost no effect)) | effect on green foxtail (G) ([18]; 3 weeks after application): 4 (Herbicidal rate of 70% or more and less than 90%) | G: green foxtail, herbicidal effect rating ([19]; AAH 320 g/ha): 0 (Herbicidal rate of 5% or less (almost no effect)) | effect on blackgrass (J) ([20]; 3 weeks after application): 2 (Herbicidal rate of 20% or more and less than 40%) | herbicidal effect on D (Chinese sprangletop), rating 0-5 [21]: 4 (Herbicidal rate of 70% or more and less than 90%) | effect on persian speedwell (R) ([22]; 3 weeks after application): 5 (Herbicidal rate of 90% or more (almost completely withered)) | effect on lambsquarters (O) ([23]; 3 weeks after application): 4 (Herbicidal rate of 70% or more and less than 90%) | effect on wild oat (I) ([24]; 3 weeks after application): 2 (Herbicidal rate of 20% or more and less than 40%)

COc1ccccc1-c1sc2cc(OCCS(C)(=O)=O)ccc2c1-c1c(O)c(C)nn(C)c1=O [3-127]
L: windgrass, herbicidal effect grade ([1]; three weeks after application): 5 (Herbicidal rate of 90% or more (almost completely withered)) | J: blackgrass, herbicidal effect grade [2, 27]: 3 (Herbicidal rate of 40% or more and less than 70%) | L: windgrass, herbicidal effect grade [3, 27]: 5 (Herbicidal rate of 90% or more (almost completely withered)) | F: southern crabgrass, herbicidal effect grade ([4]; three weeks after application): 5 (Herbicidal rate of 90% or more (almost completely withered)) | P: chickweed, herbicidal effect grade [25]: 5 (Herbicidal rate of 90% or more (almost completely withered)) | H: barnyard grass, herbicidal effect grade [5, 27]: 0 (Herbicidal rate of 5% or less (almost no effect)) | I: wild oat, herbicidal effect grade [6, 27]: 0 (Herbicidal rate of 5% or less (almost no effect)) | herbicidal effect on barnyard grass (H) [7]: 4 (Herbicidal rate of 70% or more and less than 90%) | N: redroot pigweed, herbicidal effect grade [8, 27]: 0 (Herbicidal rate of 5% or less (almost no effect)) | H: barnyard grass, herbicidal effect grade ([9]; three weeks after application): 3 (Herbicidal rate of 40% or more and less than 70%) | K: Italian ryegrass, herbicidal effect grade [10, 27]: 4 (Herbicidal rate of 70% or more and less than 90%) | O: lambsquarters, herbicidal effect grade [11, 27]: 0 (Herbicidal rate of 5% or less (almost no effect)) | K: Italian ryegrass, herbicidal effect grade ([12]; three weeks after application): 4 (Herbicidal rate of 70% or more and less than 90%) | M: velvetleaf, herbicidal effect grade [13, 27]: 0 (Herbicidal rate of 5% or less (almost no effect)) | F: southern crabgrass, herbicidal effect grade [14, 27]: 0 (Herbicidal rate of 5% or less (almost no effect)) | M: velvetleaf, herbicidal effect grade ([15]; three weeks after application): 5 (Herbicidal rate of 90% or more (almost completely withered)) | herbicidal effect on rice flat sedge (E) [16]: 5 (Herbicidal rate of 90% or more (almost completely withered)) | P: chickweed, herbicidal effect grade [17, 27]: 1 (Herbicidal rate of 5% or more and less than 20%) | N: redroot pigweed, herbicidal effect grade [26]: 5 (Herbicidal rate of 90% or more (almost completely withered)) | G: green foxtail, herbicidal effect grade ([18]; three weeks after application): 5 (Herbicidal rate of 90% or more (almost completely withered)) | G: green foxtail, herbicidal effect grade [19, 27]: 0 (Herbicidal rate of 5% or less (almost no effect)) | J: blackgrass, herbicidal effect grade ([20]; three weeks after application): 5 (Herbicidal rate of 90% or more (almost completely withered)) | herbicidal effect on Chinese sprangletop (D) [21]: 3 (Herbicidal rate of 40% or more and less than 70%) | R: persian speedwell, herbicidal effect grade ([22]; three weeks after application): 5 (Herbicidal rate of 90% or more (almost completely withered)) | O: lambsquarters, herbicidal effect grade ([23]; three weeks after application): 4 (Herbicidal rate of 70% or more and less than 90%) | I: wild oat, herbicidal effect grade ([24]; three weeks after application): 4 (Herbicidal rate of 70% or more and less than 90%)
